{
  "source": "the supplement of paper PMC8671470",
  "data": [
    {"test_system": "BV-173", "experiment": "cell viability (% survival relative to DMSO control); higher = less cytotoxic", "settings": "drug1 concentration 5 nM; drug2 concentration 5000 nM; 72 h", "protocol": "(§1)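 8x8 drug-combination matrices (0–5000 nM; rosiglitazone and lestaurtinib 0–1000 nM) were run in BV-173 cells for 72 h with CellTiter-Glo read-out. Survival is normalised to DMSO and 10 µM bortezomib and clipped at 100%.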", "units": {"cell viability": "%"}, "values": [
      {"smiles": "O=C(C1CC1)N1CC[C@@H](C=C2NNC(=O)N2c2ccc(-c3ccc4occc4c3)cc2)C1", "note": "+ CS(=O)(=O)N1CCN(Cc2cc3nc(-c4cccc5[nH]ncc45)nc(N4CCOCC4)c3s2)CC1 [Pictilisib]", "cell viability": 87.6},
      {"smiles": "O=C(C1CC1)N1CC[C@@H](C=C2NNC(=O)N2c2ccc(-c3ccc4occc4c3)cc2)C1", "note": "+ C[C@H](NC(=O)c1sccc1OCc1ccc(Cl)cc1)c1ccccc1 [as1949490]", "cell viability": 65.2},
      {"smiles": "O=C(C1CC1)N1CC[C@@H](C=C2NNC(=O)N2c2ccc(-c3ccc4occc4c3)cc2)C1", "note": "+ O=C(c1c2ccccc2cc2ccccc12)N1CCC(N2CCC[C@@H](C(=O)N3CCOCC3)C2)CC1 [CP-640186]", "cell viability": "> 100"},
      {"smiles": "CC(C)c1onc(-c2c(Cl)cccc2Cl)c1COc1ccc(/C=C/c2cccc(C(=O)O)c2)c(Cl)c1", "note": "[GW4064] + Cn1cc(-c2ccncc2)c(-c2ccc(OCc3ccc4ccccc4n3)cc2)n1 [PF-02545920]", "cell viability": 90.7}
    ]},
    {"test_system": "BV-173", "experiment": "cell viability (% survival relative to DMSO control); higher = less cytotoxic", "settings": "drug1 concentration 10 nM; drug2 concentration 5 nM; 72 h", "protocol": "as §1", "units": {"cell viability": "%"}, "values": [
      {"smiles": "O=C(C1CC1)N1CC[C@@H](C=C2NNC(=O)N2c2ccc(-c3ccc4occc4c3)cc2)C1", "note": "+ CS(=O)(=O)N1CCN(Cc2cc3nc(-c4cccc5[nH]ncc45)nc(N4CCOCC4)c3s2)CC1 [Pictilisib]", "cell viability": "> 100"},
      {"smiles": "O=C(C1CC1)N1CC[C@@H](C=C2NNC(=O)N2c2ccc(-c3ccc4occc4c3)cc2)C1", "note": "+ C[C@H](NC(=O)c1sccc1OCc1ccc(Cl)cc1)c1ccccc1 [as1949490]", "cell viability": "> 100"},
      {"smiles": "O=C(C1CC1)N1CC[C@@H](C=C2NNC(=O)N2c2ccc(-c3ccc4occc4c3)cc2)C1", "note": "+ O=C(c1c2ccccc2cc2ccccc12)N1CCC(N2CCC[C@@H](C(=O)N3CCOCC3)C2)CC1 [CP-640186]", "cell viability": "> 100"},
      {"smiles": "CC(C)c1onc(-c2c(Cl)cccc2Cl)c1COc1ccc(/C=C/c2cccc(C(=O)O)c2)c(Cl)c1", "note": "[GW4064] + Cn1cc(-c2ccncc2)c(-c2ccc(OCc3ccc4ccccc4n3)cc2)n1 [PF-02545920]", "cell viability": "> 100"}
    ]},
    {"test_system": "BV-173", "experiment": "cell viability (% survival relative to DMSO control); higher = less cytotoxic", "settings": "drug1 concentration 10 nM; drug2 concentration 10 nM; 72 h", "protocol": "as §1", "units": {"cell viability": "%"}, "values": [
      {"smiles": "O=C(C1CC1)N1CC[C@@H](C=C2NNC(=O)N2c2ccc(-c3ccc4occc4c3)cc2)C1", "note": "+ CS(=O)(=O)N1CCN(Cc2cc3nc(-c4cccc5[nH]ncc45)nc(N4CCOCC4)c3s2)CC1 [Pictilisib]", "cell viability": "> 100"},
      {"smiles": "O=C(C1CC1)N1CC[C@@H](C=C2NNC(=O)N2c2ccc(-c3ccc4occc4c3)cc2)C1", "note": "+ C[C@H](NC(=O)c1sccc1OCc1ccc(Cl)cc1)c1ccccc1 [as1949490]", "cell viability": "> 100"},
      {"smiles": "O=C(C1CC1)N1CC[C@@H](C=C2NNC(=O)N2c2ccc(-c3ccc4occc4c3)cc2)C1", "note": "+ O=C(c1c2ccccc2cc2ccccc12)N1CCC(N2CCC[C@@H](C(=O)N3CCOCC3)C2)CC1 [CP-640186]", "cell viability": "> 100"},
      {"smiles": "CC(C)c1onc(-c2c(Cl)cccc2Cl)c1COc1ccc(/C=C/c2cccc(C(=O)O)c2)c(Cl)c1", "note": "[GW4064] + Cn1cc(-c2ccncc2)c(-c2ccc(OCc3ccc4ccccc4n3)cc2)n1 [PF-02545920]", "cell viability": 95.5}
    ]},
    {"test_system": "BV-173", "experiment": "cell viability (% survival relative to DMSO control); higher = less cytotoxic", "settings": "drug1 concentration 10 nM; drug2 concentration 50 nM; 72 h", "protocol": "as §1", "units": {"cell viability": "%"}, "values": [
      {"smiles": "O=C(C1CC1)N1CC[C@@H](C=C2NNC(=O)N2c2ccc(-c3ccc4occc4c3)cc2)C1", "note": "+ CS(=O)(=O)N1CCN(Cc2cc3nc(-c4cccc5[nH]ncc45)nc(N4CCOCC4)c3s2)CC1 [Pictilisib]", "cell viability": "> 100"},
      {"smiles": "O=C(C1CC1)N1CC[C@@H](C=C2NNC(=O)N2c2ccc(-c3ccc4occc4c3)cc2)C1", "note": "+ C[C@H](NC(=O)c1sccc1OCc1ccc(Cl)cc1)c1ccccc1 [as1949490]", "cell viability": "> 100"},
      {"smiles": "O=C(C1CC1)N1CC[C@@H](C=C2NNC(=O)N2c2ccc(-c3ccc4occc4c3)cc2)C1", "note": "+ O=C(c1c2ccccc2cc2ccccc12)N1CCC(N2CCC[C@@H](C(=O)N3CCOCC3)C2)CC1 [CP-640186]", "cell viability": "> 100"},
      {"smiles": "CC(C)c1onc(-c2c(Cl)cccc2Cl)c1COc1ccc(/C=C/c2cccc(C(=O)O)c2)c(Cl)c1", "note": "[GW4064] + Cn1cc(-c2ccncc2)c(-c2ccc(OCc3ccc4ccccc4n3)cc2)n1 [PF-02545920]", "cell viability": 88.5}
    ]},
    {"test_system": "BV-173", "experiment": "cell viability (% survival relative to DMSO control); higher = less cytotoxic", "settings": "drug1 concentration 10 nM; drug2 concentration 100 nM; 72 h", "protocol": "as §1", "units": {"cell viability": "%"}, "values": [
      {"smiles": "O=C(C1CC1)N1CC[C@@H](C=C2NNC(=O)N2c2ccc(-c3ccc4occc4c3)cc2)C1", "note": "+ CS(=O)(=O)N1CCN(Cc2cc3nc(-c4cccc5[nH]ncc45)nc(N4CCOCC4)c3s2)CC1 [Pictilisib]", "cell viability": "> 100"},
      {"smiles": "O=C(C1CC1)N1CC[C@@H](C=C2NNC(=O)N2c2ccc(-c3ccc4occc4c3)cc2)C1", "note": "+ C[C@H](NC(=O)c1sccc1OCc1ccc(Cl)cc1)c1ccccc1 [as1949490]", "cell viability": 80.2},
      {"smiles": "O=C(C1CC1)N1CC[C@@H](C=C2NNC(=O)N2c2ccc(-c3ccc4occc4c3)cc2)C1", "note": "+ O=C(c1c2ccccc2cc2ccccc12)N1CCC(N2CCC[C@@H](C(=O)N3CCOCC3)C2)CC1 [CP-640186]", "cell viability": "> 100"},
      {"smiles": "CC(C)c1onc(-c2c(Cl)cccc2Cl)c1COc1ccc(/C=C/c2cccc(C(=O)O)c2)c(Cl)c1", "note": "[GW4064] + Cn1cc(-c2ccncc2)c(-c2ccc(OCc3ccc4ccccc4n3)cc2)n1 [PF-02545920]", "cell viability": "> 100"}
    ]},
    {"test_system": "BV-173", "experiment": "cell viability (% survival relative to DMSO control); higher = less cytotoxic", "settings": "drug1 concentration 10 nM; drug2 concentration 500 nM; 72 h", "protocol": "as §1", "units": {"cell viability": "%"}, "values": [
      {"smiles": "O=C(C1CC1)N1CC[C@@H](C=C2NNC(=O)N2c2ccc(-c3ccc4occc4c3)cc2)C1", "note": "+ CS(=O)(=O)N1CCN(Cc2cc3nc(-c4cccc5[nH]ncc45)nc(N4CCOCC4)c3s2)CC1 [Pictilisib]", "cell viability": "> 100"},
      {"smiles": "O=C(C1CC1)N1CC[C@@H](C=C2NNC(=O)N2c2ccc(-c3ccc4occc4c3)cc2)C1", "note": "+ C[C@H](NC(=O)c1sccc1OCc1ccc(Cl)cc1)c1ccccc1 [as1949490]", "cell viability": "> 100"},
      {"smiles": "O=C(C1CC1)N1CC[C@@H](C=C2NNC(=O)N2c2ccc(-c3ccc4occc4c3)cc2)C1", "note": "+ O=C(c1c2ccccc2cc2ccccc12)N1CCC(N2CCC[C@@H](C(=O)N3CCOCC3)C2)CC1 [CP-640186]", "cell viability": "> 100"},
      {"smiles": "CC(C)c1onc(-c2c(Cl)cccc2Cl)c1COc1ccc(/C=C/c2cccc(C(=O)O)c2)c(Cl)c1", "note": "[GW4064] + Cn1cc(-c2ccncc2)c(-c2ccc(OCc3ccc4ccccc4n3)cc2)n1 [PF-02545920]", "cell viability": 93.2}
    ]},
    {"test_system": "BV-173", "experiment": "cell viability (% survival relative to DMSO control); higher = less cytotoxic", "settings": "drug1 concentration 10 nM; drug2 concentration 1000 nM; 72 h", "protocol": "as §1", "units": {"cell viability": "%"}, "values": [
      {"smiles": "O=C(C1CC1)N1CC[C@@H](C=C2NNC(=O)N2c2ccc(-c3ccc4occc4c3)cc2)C1", "note": "+ CS(=O)(=O)N1CCN(Cc2cc3nc(-c4cccc5[nH]ncc45)nc(N4CCOCC4)c3s2)CC1 [Pictilisib]", "cell viability": 99.2},
      {"smiles": "O=C(C1CC1)N1CC[C@@H](C=C2NNC(=O)N2c2ccc(-c3ccc4occc4c3)cc2)C1", "note": "+ C[C@H](NC(=O)c1sccc1OCc1ccc(Cl)cc1)c1ccccc1 [as1949490]", "cell viability": 87.6},
      {"smiles": "O=C(C1CC1)N1CC[C@@H](C=C2NNC(=O)N2c2ccc(-c3ccc4occc4c3)cc2)C1", "note": "+ O=C(c1c2ccccc2cc2ccccc12)N1CCC(N2CCC[C@@H](C(=O)N3CCOCC3)C2)CC1 [CP-640186]", "cell viability": "> 100"},
      {"smiles": "CC(C)c1onc(-c2c(Cl)cccc2Cl)c1COc1ccc(/C=C/c2cccc(C(=O)O)c2)c(Cl)c1", "note": "[GW4064] + Cn1cc(-c2ccncc2)c(-c2ccc(OCc3ccc4ccccc4n3)cc2)n1 [PF-02545920]", "cell viability": "> 100"}
    ]},
    {"test_system": "BV-173", "experiment": "cell viability (% survival relative to DMSO control); higher = less cytotoxic", "settings": "drug1 concentration 10 nM; drug2 concentration 5000 nM; 72 h", "protocol": "as §1", "units": {"cell viability": "%"}, "values": [
      {"smiles": "O=C(C1CC1)N1CC[C@@H](C=C2NNC(=O)N2c2ccc(-c3ccc4occc4c3)cc2)C1", "note": "+ CS(=O)(=O)N1CCN(Cc2cc3nc(-c4cccc5[nH]ncc45)nc(N4CCOCC4)c3s2)CC1 [Pictilisib]", "cell viability": 92.1},
      {"smiles": "O=C(C1CC1)N1CC[C@@H](C=C2NNC(=O)N2c2ccc(-c3ccc4occc4c3)cc2)C1", "note": "+ C[C@H](NC(=O)c1sccc1OCc1ccc(Cl)cc1)c1ccccc1 [as1949490]", "cell viability": 44.9},
      {"smiles": "O=C(C1CC1)N1CC[C@@H](C=C2NNC(=O)N2c2ccc(-c3ccc4occc4c3)cc2)C1", "note": "+ O=C(c1c2ccccc2cc2ccccc12)N1CCC(N2CCC[C@@H](C(=O)N3CCOCC3)C2)CC1 [CP-640186]", "cell viability": "> 100"},
      {"smiles": "CC(C)c1onc(-c2c(Cl)cccc2Cl)c1COc1ccc(/C=C/c2cccc(C(=O)O)c2)c(Cl)c1", "note": "[GW4064] + Cn1cc(-c2ccncc2)c(-c2ccc(OCc3ccc4ccccc4n3)cc2)n1 [PF-02545920]", "cell viability": 90.2}
    ]},
    {"test_system": "BV-173", "experiment": "cell viability (% survival relative to DMSO control); higher = less cytotoxic", "settings": "drug1 concentration 50 nM; drug2 concentration 5 nM; 72 h", "protocol": "as §1", "units": {"cell viability": "%"}, "values": [
      {"smiles": "O=C(C1CC1)N1CC[C@@H](C=C2NNC(=O)N2c2ccc(-c3ccc4occc4c3)cc2)C1", "note": "+ CS(=O)(=O)N1CCN(Cc2cc3nc(-c4cccc5[nH]ncc45)nc(N4CCOCC4)c3s2)CC1 [Pictilisib]", "cell viability": 95},
      {"smiles": "O=C(C1CC1)N1CC[C@@H](C=C2NNC(=O)N2c2ccc(-c3ccc4occc4c3)cc2)C1", "note": "+ C[C@H](NC(=O)c1sccc1OCc1ccc(Cl)cc1)c1ccccc1 [as1949490]", "cell viability": "> 100"},
      {"smiles": "O=C(C1CC1)N1CC[C@@H](C=C2NNC(=O)N2c2ccc(-c3ccc4occc4c3)cc2)C1", "note": "+ O=C(c1c2ccccc2cc2ccccc12)N1CCC(N2CCC[C@@H](C(=O)N3CCOCC3)C2)CC1 [CP-640186]", "cell viability": "> 100"},
      {"smiles": "CC(C)c1onc(-c2c(Cl)cccc2Cl)c1COc1ccc(/C=C/c2cccc(C(=O)O)c2)c(Cl)c1", "note": "[GW4064] + Cn1cc(-c2ccncc2)c(-c2ccc(OCc3ccc4ccccc4n3)cc2)n1 [PF-02545920]", "cell viability": "> 100"}
    ]},
    {"test_system": "BV-173", "experiment": "cell viability (% survival relative to DMSO control); higher = less cytotoxic", "settings": "drug1 concentration 50 nM; drug2 concentration 10 nM; 72 h", "protocol": "as §1", "units": {"cell viability": "%"}, "values": [
      {"smiles": "O=C(C1CC1)N1CC[C@@H](C=C2NNC(=O)N2c2ccc(-c3ccc4occc4c3)cc2)C1", "note": "+ CS(=O)(=O)N1CCN(Cc2cc3nc(-c4cccc5[nH]ncc45)nc(N4CCOCC4)c3s2)CC1 [Pictilisib]", "cell viability": "> 100"}
    ]}
  ]
}
